What was measured:
Type in all cases: functional
OVCAR-3 [1] = test: Growth inhibition of human OVCAR3 cells assessed as cell growth at 100 uM incubated for 48 hrs by sulforhodamine B assay relative to control; settings: OVCAR-3, 48 h, read-out: Activity
OVCAR-3 [2] = test: Growth inhibition of human OVCAR3 cells assessed as cell growth at 0.1 uM incubated for 48 hrs by sulforhodamine B assay relative to control; settings: OVCAR-3, 48 h, read-out: Activity
SF-539 = test: Growth inhibition of human SF539 cells assessed as cell growth at 0.01 uM incubated for 48 hrs by sulforhodamine B assay relative to control; settings: SF-539, 48 h, read-out: Activity
DU-145 = test: Growth inhibition of human DU145 cells assessed as cell growth at 100 uM incubated for 48 hrs by sulforhodamine B assay relative to control; settings: DU-145, 48 h, read-out: Activity
SK-OV-3 = test: Growth inhibition of human SKOV3 cells assessed as cell growth at 0.1 uM incubated for 48 hrs by sulforhodamine B assay relative to control; settings: SK-OV-3, 48 h, read-out: Activity
UO-31 [3] = test: Growth inhibition of human UO31 cells assessed as cell growth at 0.01 uM incubated for 48 hrs by sulforhodamine B assay relative to control; settings: UO-31, 48 h, read-out: Activity
HOP-92 = test: Growth inhibition of human HOP92 cells assessed as cell growth at 100 uM incubated for 48 hrs by sulforhodamine B assay relative to control; settings: HOP-92, 48 h, read-out: Activity
MCF7 = test: Growth inhibition of human MCF7 cells incubated for 48 hrs by sulforhodamine B assay; settings: MCF7, 48 h
786-0 = test: Growth inhibition of human 786-0 cells incubated for 48 hrs by sulforhodamine B assay; settings: 786-0, 48 h
M14 = test: Growth inhibition of human M14 cells assessed as cell growth at 100 uM incubated for 48 hrs by sulforhodamine B assay relative to control; settings: M14, 48 h, read-out: Activity
SW-620 = test: Growth inhibition of human SW620 cells assessed as cell growth at 0.1 uM incubated for 48 hrs by sulforhodamine B assay relative to control; settings: SW-620, 48 h, read-out: Activity
Hs-578T [4] = test: Growth inhibition of human Hs 578T cells assessed as cell growth at 100 uM incubated for 48 hrs by sulforhodamine B assay relative to control; settings: read-out: Activity
SNB-19 = test: Growth inhibition of human SNB19 cells incubated for 48 hrs by sulforhodamine B assay; settings: SNB-19, 48 h
UO-31 [5] = test: Growth inhibition of human UO31 cells incubated for 48 hrs by sulforhodamine B assay; settings: UO-31, 48 h
NCI/ADR-RES = test: Growth inhibition of human NCI-ADR-RES cells assessed as cell growth at 1 uM incubated for 48 hrs by sulforhodamine B assay relative to control; settings: read-out: Activity
UACC-257 = test: Growth inhibition of human UACC257 cells incubated for 48 hrs by sulforhodamine B assay; settings: UACC-257, 48 h
MDA-MB-231 = test: Growth inhibition of human MDA-MB-231 cells assessed as cell growth at 0.1 uM incubated for 48 hrs by sulforhodamine B assay relative to control; settings: MDA-MB-231, 48 h, read-out: Activity
T47D [6] = test: Growth inhibition of human T47D cells incubated for 48 hrs by sulforhodamine B assay
HL-60(TB) = test: Growth inhibition of human HL-60(TB) cells incubated for 48 hrs by sulforhodamine B assay; settings: HL-60, 48 h
NCI-H522 = test: Growth inhibition of human NCI-H522 cells assessed as cell growth at 1 uM incubated for 48 hrs by sulforhodamine B assay relative to control; settings: NCI-H522, 48 h, read-out: Activity
EKVX = test: Growth inhibition of human EKVX cells incubated for 48 hrs by sulforhodamine B assay
HCT-116 = test: Growth inhibition of human HCT116 cells incubated for 48 hrs by sulforhodamine B assay; settings: HCT-116, 48 h
SK-MEL-5 = test: Growth inhibition of human SK-MEL-5 cells assessed as cell growth at 100 uM incubated for 48 hrs by sulforhodamine B assay relative to control; settings: SK-MEL-5, 48 h, read-out: Activity
MOLT-4 = test: Growth inhibition of human MOLT4 cells assessed as cell growth at 100 uM incubated for 48 hrs by sulforhodamine B assay relative to control; settings: MOLT-4, 48 h, read-out: Activity
Hs-578T [7] = test: Growth inhibition of human Hs 578T cells assessed as cell growth at 0.01 uM incubated for 48 hrs by sulforhodamine B assay relative to control; settings: read-out: Activity
SF-268 = test: Growth inhibition of human SF268 cells incubated for 48 hrs by sulforhodamine B assay; settings: SF-268, 48 h
NCI-H226 = test: Growth inhibition of human NCI-H226 cells assessed as cell growth at 0.1 uM incubated for 48 hrs by sulforhodamine B assay relative to control; settings: NCI-H226, 48 h, read-out: Activity
T47D [8] = test: Growth inhibition of human T47D cells assessed as cell growth at 0.1 uM incubated for 48 hrs by sulforhodamine B assay relative to control; settings: read-out: Activity
[9] = read-out: LC50 (the source's name)
[10] = read-out: pLC50 (the source's name) (converted)

`c1ccc2[nH]c(-c3ccc(-c4nccc5c4[nH]c4ccccc45)cc3)nc2c1` showed a growth at 100 µM (OVCAR-3 [1]) of 58%, a growth at 0.1 µM (OVCAR-3 [2]) of 103% and a growth at 0.01 µM (SF-539) of 96%. It also gave a growth at 100 µM (DU-145) of 72%, a growth at 0.1 µM (SK-OV-3) of 98% and a growth at 0.01 µM (UO-31 [3]) of 89%. For the same molecule, the growth at 100 µM (HOP-92) was 76%, the GI50 (MCF7; read-out: GI50) was 3.56 µM and the CC50 (MCF7; [9]) was 8.86 µM. The GI50 (MCF7; read-out: pGI50 (converted)) was 3.55 µM, the CC50 (MCF7; [10]) was 89.1 µM and the TGI (MCF7; read-out: pTGI (converted)) was 17.4 µM. The GI50 (786-0; read-out: GI50) was 2.24 µM, the CC50 (786-0; [9]) was 3.83 µM and the TGI (786-0; read-out: TGI) was 6.3 µM. It also gave a GI50 (786-0; read-out: pGI50 (converted)) of 2.24 µM, a CC50 (786-0; [10]) of 38 µM and a TGI (786-0; read-out: pTGI (converted)) of 6.31 µM. It also gave a growth at 100 µM (M14) of 76%, a growth at 0.1 µM (SW-620) of 103% and a growth at 100 µM (Hs-578T [4]) of 46%. The GI50 (SNB-19; read-out: GI50) was 4.21 µM, the CC50 (SNB-19; [9]) was greater than 1 µM and the GI50 (SNB-19; read-out: pGI50 (converted)) was 4.17 µM. It also gave a CC50 (SNB-19; [10]) greater than 100 µM, a TGI (SNB-19; read-out: pTGI (converted)) of 30.2 µM and a GI50 (UO-31 [5]; read-out: GI50) of 1.69 µM. For the same molecule, the CC50 (UO-31 [5]; [9]) was 6.32 µM, the TGI (UO-31 [5]; read-out: TGI) was 3.27 µM and the GI50 (UO-31 [5]; read-out: pGI50 (converted)) was 1.7 µM. For the same molecule, the CC50 (UO-31 [5]; [10]) was 6.31 µM, the TGI (UO-31 [5]; read-out: pTGI (converted)) was 3.24 µM and the growth at 1 µM (NCI/ADR-RES) was 98%. It also gave a GI50 (UACC-257; read-out: GI50) of 1.83 µM, a CC50 (UACC-257; [9]) of 6.73 µM and a TGI (UACC-257; read-out: TGI) of 3.5 µM. The CC50 (UACC-257; [10]) was 6.76 µM, the growth at 0.1 µM (MDA-MB-231) was 94% and the GI50 (T47D [6]; read-out: GI50) was 2.02 µM. It also gave a CC50 (T47D [6]; [9]) of 8.34 µM, a TGI (T47D [6]; read-out: TGI) of 6.19 µM and a GI50 (T47D [6]; read-out: pGI50 (converted)) of 2.04 µM. The CC50 (T47D [6]; [10]) was 83.2 µM, the TGI (T47D [6]; read-out: pTGI (converted)) was 6.17 µM and the GI50 (HL-60(TB); read-out: GI50) was 2.03 µM. It also gave a CC50 (HL-60(TB); [9]) greater than 1 µM, a TGI (HL-60(TB); read-out: TGI) of 4.59 µM and a GI50 (HL-60(TB); read-out: pGI50 (converted)) of 2.04 µM. The CC50 (HL-60(TB); [10]) was greater than 100 µM, the TGI (HL-60(TB); read-out: pTGI (converted)) was 4.57 µM and the growth at 1 µM (NCI-H522) was 91%. For the same molecule, the GI50 (EKVX; read-out: GI50) was 3.45 µM, the CC50 (EKVX; [9]) was greater than 1 µM and the GI50 (EKVX; read-out: pGI50 (converted)) was 3.47 µM. For the same molecule, the CC50 (EKVX; [10]) was greater than 100 µM, the TGI (EKVX; read-out: pTGI (converted)) was 17 µM and the CC50 (HCT-116; [9]) was 4.43 µM. For the same molecule, the GI50 (HCT-116; read-out: pGI50 (converted)) was 2.82 µM, the CC50 (HCT-116; [10]) was 44.7 µM and the TGI (HCT-116; read-out: pTGI (converted)) was 10.5 µM. The growth at 100 µM (SK-MEL-5) was 86%, the growth at 100 µM (MOLT-4) was 54% and the growth at 0.01 µM (Hs-578T [7]) was 99%. The GI50 (SF-268; read-out: GI50) was 2.89 µM, the CC50 (SF-268; [9]) was 8.98 µM and the GI50 (SF-268; read-out: pGI50 (converted)) was 2.88 µM. For the same molecule, the CC50 (SF-268; [10]) was 89.1 µM, the TGI (SF-268; read-out: pTGI (converted)) was 10.2 µM and the growth at 0.1 µM (NCI-H226) was 104%. For the same molecule, the growth at 0.1 µM (T47D [8]) was 89%.

Source: ChEMBL document CHEMBL4004838, “Design and synthesis of novel phenyl -1, 4-beta-carboline-hybrid molecules as potential anticancer agents” (Eur J Med Chem, 2017)
